We go through 6 molecules from the kinase profiling compilation of Christmann-Franck et al. (2016).

The target in one test is AKT1 (human) (UniProt P31749). In words: SelectScreen, TR FRET. The following applies: compound 10.0 µM. A general note: TR-FRET usually uses a lanthanide donor and a delayed reading to cut background.
Another test addresses CAMK2A (human) (UniProt Q9UQM7). The test can be described thus: SelectScreen, TR FRET. The settings on record: compound 10.0 µM.
Another test has as its target CDK1 CCNB1 (human) (UniProt P06493+P14635). In words: SelectScreen, TR FRET. The following applies: compound 10.0 µM.
A further test addresses CDK5 CDK5R1 p25 (human) (UniProt Q15078+Q00535). In words: SelectScreen, TR FRET. The settings on record: compound 10.0 µM.
The target of the next test is CLK1 (human) (UniProt P49759). In words: SelectScreen, TR FRET. The settings on record: compound 10.0 µM.
The target of the next test is DYRK1B (human) (UniProt Q9Y463). In words: SelectScreen, TR FRET. The following applies: compound 10.0 µM.
In another test the target is GSK3B (human) (UniProt P49841). In words: SelectScreen, TR FRET. The following applies: compound 10.0 µM.
The target in a further test is INSR (human) (UniProt P06213). The test can be described thus: SelectScreen, TR FRET. The settings on record: compound 10.0 µM.
The target in another test is MAPK10 (human) (UniProt P53779). In words: SelectScreen, TR FRET. The settings on record: compound 10.0 µM.
The next test concerns the target PIK3CA PIK3R1 (human) (UniProt P27986+P42336). In words: SelectScreen, TR FRET. The following applies: compound 10.0 µM.
For the next test, the target named is PLK1 (human) (UniProt P53350). In words: SelectScreen, TR FRET. The settings on record: compound 10.0 µM.
Another test addresses PLK2 (human) (UniProt Q9NYY3). In words: SelectScreen, TR FRET. The following applies: compound 10.0 µM.
In another test the target is PLK3 (human) (UniProt Q9H4B4). The test can be described thus: SelectScreen, TR FRET. The following applies: compound 10.0 µM.
Another test deals with PRKACA (human) (UniProt P17612). In words: SelectScreen, TR FRET. The following applies: compound 10.0 µM.
In the next test the target is PRKCB1 (human) (UniProt P05771). The test can be described thus: SelectScreen, TR FRET. The following applies: compound 10.0 µM.
The target in the next test is RAF1 (human) (UniProt P04049). The test can be described thus: SelectScreen, TR FRET. The settings on record: compound 10.0 µM.
Another test has as its target ERBB4 (human) (UniProt Q15303). In words: SelectScreen, TR FRET. The following applies: compound 10.0 µM.
Another test concerns the target MAPK1 (human) (UniProt P28482). The test can be described thus: SelectScreen, TR FRET. The settings on record: compound 10.0 µM.
The target in test [1] is CSF1R (human) (UniProt P07333). The test can be described thus: HTRF.
Test [2] deals with LRRK2 (human) (UniProt Q5S007). The test can be described thus: HTRF.
For test [3], the target named is LRRK2 (human), Q5S007 [G2019S]. The test can be described thus: HTRF.
The target in test [4] is PDGFRA (human) (UniProt P16234). In words: HTRF.
The target in the next test is ABL1 (human) (UniProt P00519). In words: SelectScreen, TR FRET. The settings on record: compound 10.0 µM.
A further test addresses AURKA (human) (UniProt O14965). The test can be described thus: SelectScreen, TR FRET. The following applies: compound 10.0 µM.
The target of a further test is CDK2 CCNA2 (human) (UniProt P24941+P20248). The test can be described thus: SelectScreen, TR FRET. The settings on record: compound 10.0 µM.
A further test has as its target CHEK1 (human) (UniProt O14757). The test can be described thus: SelectScreen, TR FRET. The following applies: compound 10.0 µM.
In test [5] the target is CSF1R (human) (UniProt P07333). In words: SelectScreen, TR FRET. The settings on record: compound 10.0 µM.
For another test, the target named is FLT3 (human) (UniProt P36888). In words: SelectScreen, TR FRET. The following applies: compound 10.0 µM.
Another test deals with IRAK4 (human) (UniProt Q9NWZ3). In words: SelectScreen, TR FRET. The following applies: compound 10.0 µM.
A further test deals with JAK1 JH1 JH2 (human) (UniProt P23458). In words: SelectScreen, TR FRET. The following applies: compound 10.0 µM.
Another test addresses LCK (human) (UniProt P06239). The test can be described thus: SelectScreen, TR FRET. The following applies: compound 10.0 µM.
Test [6] deals with LRRK2 (human) (UniProt Q5S007). In words: SelectScreen, TR FRET. The following applies: compound 10.0 µM.
A further test deals with MAP3K7 TAB1 (human) (UniProt Q15750+O43318). In words: SelectScreen, TR FRET. The following applies: compound 10.0 µM.
The target in a further test is MARK2 (human) (UniProt Q7KZI7). The test can be described thus: SelectScreen, TR FRET. The settings on record: compound 10.0 µM.
In the next test the target is PAK4 (human) (UniProt O96013). The test can be described thus: SelectScreen, TR FRET. The settings on record: compound 10.0 µM.
Test [7] addresses PDGFRA (human) (UniProt P16234). The test can be described thus: SelectScreen, TR FRET. The settings on record: compound 10.0 µM.
The target of another test is PTK2B (human) (UniProt Q14289). In words: SelectScreen, TR FRET. The settings on record: compound 10.0 µM.
For another test, the target named is RET (human) (UniProt P07949). In words: SelectScreen, TR FRET. The settings on record: compound 10.0 µM.
The next test deals with RIPK2 (human) (UniProt O43353). The test can be described thus: SelectScreen, TR FRET. The following applies: compound 10.0 µM.
A further test deals with ROCK2 (human) (UniProt O75116). In words: SelectScreen, TR FRET. The following applies: compound 10.0 µM.
The target in a further test is STK16 (human) (UniProt O75716). The test can be described thus: SelectScreen, TR FRET. The settings on record: compound 10.0 µM.
In the next test the target is STK3 (human) (UniProt Q13188). In words: SelectScreen, TR FRET. The following applies: compound 10.0 µM.
The next test deals with SYK (human) (UniProt P43405). In words: SelectScreen, TR FRET. The following applies: compound 10.0 µM.
Another test has as its target TTK (human) (UniProt P33981). In words: SelectScreen, TR FRET. The following applies: compound 10.0 µM.

In general, inhibition refers to the drop in the measured response relative to a control, in per cent. Usually IC50 stands for the point on the concentration scale where inhibition reaches its midpoint.

Chain of CDK5 CDK5R1 p25 (human) (Q00535 whole entry, looked up): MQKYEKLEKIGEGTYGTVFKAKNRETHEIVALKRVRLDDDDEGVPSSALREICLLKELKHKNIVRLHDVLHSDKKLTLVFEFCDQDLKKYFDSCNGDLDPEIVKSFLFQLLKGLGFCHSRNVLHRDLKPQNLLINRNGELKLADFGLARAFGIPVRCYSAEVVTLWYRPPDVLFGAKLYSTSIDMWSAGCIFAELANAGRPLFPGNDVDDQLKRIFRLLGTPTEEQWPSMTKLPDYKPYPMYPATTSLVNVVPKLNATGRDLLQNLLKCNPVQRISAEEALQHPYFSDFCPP
Chain of CDK5 CDK5R1 p25 (human) (Q15078 whole entry, looked up): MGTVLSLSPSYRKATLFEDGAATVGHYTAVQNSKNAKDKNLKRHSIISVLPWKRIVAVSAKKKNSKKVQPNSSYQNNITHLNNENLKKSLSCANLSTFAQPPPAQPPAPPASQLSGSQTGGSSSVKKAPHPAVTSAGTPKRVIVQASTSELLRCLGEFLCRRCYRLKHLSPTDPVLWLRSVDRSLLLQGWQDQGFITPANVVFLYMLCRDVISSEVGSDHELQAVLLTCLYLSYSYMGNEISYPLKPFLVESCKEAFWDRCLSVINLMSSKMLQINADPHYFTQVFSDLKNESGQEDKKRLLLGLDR
Chain of MAPK10 (human) (P53779 whole entry, looked up): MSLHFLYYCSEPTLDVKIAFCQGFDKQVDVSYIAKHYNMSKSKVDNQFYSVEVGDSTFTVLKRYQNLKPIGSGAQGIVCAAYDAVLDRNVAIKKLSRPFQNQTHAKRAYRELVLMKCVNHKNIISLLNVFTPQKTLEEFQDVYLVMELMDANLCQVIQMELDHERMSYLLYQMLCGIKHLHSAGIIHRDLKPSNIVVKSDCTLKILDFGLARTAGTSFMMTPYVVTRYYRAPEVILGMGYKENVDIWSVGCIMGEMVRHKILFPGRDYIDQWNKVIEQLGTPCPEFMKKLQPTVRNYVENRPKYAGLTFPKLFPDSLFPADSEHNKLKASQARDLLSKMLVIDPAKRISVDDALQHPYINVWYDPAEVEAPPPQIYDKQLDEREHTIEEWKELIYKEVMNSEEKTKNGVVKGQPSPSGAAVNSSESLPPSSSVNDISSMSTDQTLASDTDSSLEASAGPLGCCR
Chain of CDK2 CCNA2 (human) (P20248 whole entry, looked up, other chains not shown): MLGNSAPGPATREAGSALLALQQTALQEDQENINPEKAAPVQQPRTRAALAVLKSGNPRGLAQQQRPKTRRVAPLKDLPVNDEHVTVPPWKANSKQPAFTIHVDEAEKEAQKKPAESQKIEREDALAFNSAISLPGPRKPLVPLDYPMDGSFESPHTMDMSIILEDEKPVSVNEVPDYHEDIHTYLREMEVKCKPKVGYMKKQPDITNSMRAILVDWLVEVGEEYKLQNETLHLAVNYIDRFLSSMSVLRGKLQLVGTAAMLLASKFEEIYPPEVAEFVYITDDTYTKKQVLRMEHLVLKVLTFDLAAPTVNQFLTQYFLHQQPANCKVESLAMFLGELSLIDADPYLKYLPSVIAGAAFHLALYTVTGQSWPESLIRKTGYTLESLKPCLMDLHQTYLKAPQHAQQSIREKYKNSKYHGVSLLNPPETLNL
Chain of PLK2 (human) (Q9NYY3 whole entry, looked up): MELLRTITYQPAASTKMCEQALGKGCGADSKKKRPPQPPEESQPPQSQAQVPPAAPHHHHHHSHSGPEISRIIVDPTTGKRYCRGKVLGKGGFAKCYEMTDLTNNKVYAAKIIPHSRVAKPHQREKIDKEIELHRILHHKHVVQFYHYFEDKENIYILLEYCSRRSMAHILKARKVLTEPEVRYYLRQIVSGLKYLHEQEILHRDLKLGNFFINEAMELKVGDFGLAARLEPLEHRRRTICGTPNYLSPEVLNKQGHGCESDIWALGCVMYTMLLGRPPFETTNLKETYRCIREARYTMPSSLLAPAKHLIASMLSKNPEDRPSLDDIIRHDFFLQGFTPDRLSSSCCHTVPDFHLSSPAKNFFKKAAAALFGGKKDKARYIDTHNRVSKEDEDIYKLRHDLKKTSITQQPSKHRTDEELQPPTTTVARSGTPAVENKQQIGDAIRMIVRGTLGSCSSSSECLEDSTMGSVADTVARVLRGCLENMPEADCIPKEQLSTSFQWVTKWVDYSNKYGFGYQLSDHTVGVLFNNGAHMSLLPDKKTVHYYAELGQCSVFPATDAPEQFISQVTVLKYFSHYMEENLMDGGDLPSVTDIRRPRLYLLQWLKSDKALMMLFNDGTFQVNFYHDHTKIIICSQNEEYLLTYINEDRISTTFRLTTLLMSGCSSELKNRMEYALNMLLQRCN
Chain of PRKCB1 (human) (P05771 whole entry, looked up): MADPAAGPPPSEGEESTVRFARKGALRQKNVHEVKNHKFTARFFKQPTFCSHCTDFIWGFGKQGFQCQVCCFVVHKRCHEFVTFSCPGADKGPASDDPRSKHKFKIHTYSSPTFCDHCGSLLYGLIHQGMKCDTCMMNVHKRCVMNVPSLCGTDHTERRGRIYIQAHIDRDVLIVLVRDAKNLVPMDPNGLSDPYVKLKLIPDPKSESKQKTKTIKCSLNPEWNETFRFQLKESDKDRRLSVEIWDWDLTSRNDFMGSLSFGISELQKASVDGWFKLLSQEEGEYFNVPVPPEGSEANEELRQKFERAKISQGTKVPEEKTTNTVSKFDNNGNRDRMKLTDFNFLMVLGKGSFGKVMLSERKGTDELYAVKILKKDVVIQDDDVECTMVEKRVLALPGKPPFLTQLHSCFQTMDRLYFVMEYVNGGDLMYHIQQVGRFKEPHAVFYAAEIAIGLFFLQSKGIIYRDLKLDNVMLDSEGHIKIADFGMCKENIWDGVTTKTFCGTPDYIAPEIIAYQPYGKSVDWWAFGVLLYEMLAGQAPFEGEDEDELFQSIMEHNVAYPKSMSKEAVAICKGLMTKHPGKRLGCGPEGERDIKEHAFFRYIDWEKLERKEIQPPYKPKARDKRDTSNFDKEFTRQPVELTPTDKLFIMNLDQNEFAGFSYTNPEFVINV
Chain of GSK3B (human) (P49841 whole entry, looked up): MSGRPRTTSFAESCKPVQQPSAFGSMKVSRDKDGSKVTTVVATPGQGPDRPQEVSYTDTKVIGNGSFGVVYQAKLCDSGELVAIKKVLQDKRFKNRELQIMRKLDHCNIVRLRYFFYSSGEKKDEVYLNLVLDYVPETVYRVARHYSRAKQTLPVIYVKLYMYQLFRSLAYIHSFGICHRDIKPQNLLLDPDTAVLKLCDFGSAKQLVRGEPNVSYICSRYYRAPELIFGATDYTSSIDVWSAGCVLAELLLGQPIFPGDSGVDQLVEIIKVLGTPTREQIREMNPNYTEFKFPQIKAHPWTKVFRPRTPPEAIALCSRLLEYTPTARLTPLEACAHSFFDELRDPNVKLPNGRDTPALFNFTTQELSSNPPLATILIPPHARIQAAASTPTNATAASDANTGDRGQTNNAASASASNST
Chain of RAF1 (human) (P04049 whole entry, looked up): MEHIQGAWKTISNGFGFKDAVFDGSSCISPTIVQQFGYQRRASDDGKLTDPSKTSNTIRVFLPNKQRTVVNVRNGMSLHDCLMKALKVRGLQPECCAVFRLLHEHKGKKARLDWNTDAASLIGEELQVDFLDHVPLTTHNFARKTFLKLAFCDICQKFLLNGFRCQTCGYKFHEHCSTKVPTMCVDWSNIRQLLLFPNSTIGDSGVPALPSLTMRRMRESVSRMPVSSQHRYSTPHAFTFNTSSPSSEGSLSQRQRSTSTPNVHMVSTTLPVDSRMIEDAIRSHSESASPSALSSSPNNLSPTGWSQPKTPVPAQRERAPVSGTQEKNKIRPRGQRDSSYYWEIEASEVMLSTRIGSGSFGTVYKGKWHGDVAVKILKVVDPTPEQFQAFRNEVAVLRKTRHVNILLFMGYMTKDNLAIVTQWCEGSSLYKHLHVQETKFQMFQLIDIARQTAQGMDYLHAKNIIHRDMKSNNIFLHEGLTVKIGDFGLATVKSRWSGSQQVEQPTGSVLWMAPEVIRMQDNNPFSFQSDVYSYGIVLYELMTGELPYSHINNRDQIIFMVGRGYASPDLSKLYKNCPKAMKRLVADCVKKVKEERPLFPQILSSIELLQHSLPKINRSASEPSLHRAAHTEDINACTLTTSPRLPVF
Chain of CAMK2A (human) (Q9UQM7 whole entry, looked up): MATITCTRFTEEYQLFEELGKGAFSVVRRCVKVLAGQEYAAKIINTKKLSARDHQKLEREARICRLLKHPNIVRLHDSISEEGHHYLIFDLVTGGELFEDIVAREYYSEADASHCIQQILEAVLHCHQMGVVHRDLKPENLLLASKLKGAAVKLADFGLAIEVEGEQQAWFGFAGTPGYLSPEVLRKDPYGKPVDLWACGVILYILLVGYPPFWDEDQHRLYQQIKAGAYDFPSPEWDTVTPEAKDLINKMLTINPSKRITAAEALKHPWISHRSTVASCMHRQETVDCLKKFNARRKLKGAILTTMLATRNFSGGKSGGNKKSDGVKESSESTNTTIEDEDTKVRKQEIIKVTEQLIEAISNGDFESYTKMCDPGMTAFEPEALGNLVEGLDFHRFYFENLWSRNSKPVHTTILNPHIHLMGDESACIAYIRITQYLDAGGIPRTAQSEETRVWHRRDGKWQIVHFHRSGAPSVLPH
Chain of AKT1 (human) (P31749 whole entry, looked up): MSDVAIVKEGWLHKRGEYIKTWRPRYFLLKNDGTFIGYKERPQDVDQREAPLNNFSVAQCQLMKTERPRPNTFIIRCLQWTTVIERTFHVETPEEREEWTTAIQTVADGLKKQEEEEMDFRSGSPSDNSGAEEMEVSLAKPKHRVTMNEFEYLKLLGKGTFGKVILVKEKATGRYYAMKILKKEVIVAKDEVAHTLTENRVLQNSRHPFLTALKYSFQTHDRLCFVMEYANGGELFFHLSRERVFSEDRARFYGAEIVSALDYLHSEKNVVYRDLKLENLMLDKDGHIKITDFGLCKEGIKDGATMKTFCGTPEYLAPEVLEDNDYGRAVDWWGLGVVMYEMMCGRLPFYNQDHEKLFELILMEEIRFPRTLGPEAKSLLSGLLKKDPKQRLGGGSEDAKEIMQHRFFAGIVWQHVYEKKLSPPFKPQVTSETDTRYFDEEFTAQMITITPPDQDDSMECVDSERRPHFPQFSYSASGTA

For the molecule `CC(C)Nc1c(C(N)=O)cnc2cc(-c3ccc(S(C)(=O)=O)cc3)ccc12`, the inhibition on AKT1 (human) is 4.75%; against CAMK2A (human), -0.0898%; on CDK1 CCNB1 (human) it was 1.38%; on CDK5 CDK5R1 p25 (human), 2.45%; at CLK1 (human), 1.75%; against DYRK1B (human), 9.19%. The inhibition was 6.45% on GSK3B (human); 3.68% on INSR (human); 4.17% at MAPK10 (human); -1.65% against PIK3CA PIK3R1 (human); 0.631% on PLK1 (human); 7.12% on PLK2 (human). Further, the inhibition against PLK3 (human) came to 0.957%; on PRKACA (human), 5.91%; against PRKCB1 (human), 8.27%; on RAF1 (human), 16.7%.

Regarding `CC(C)Nc1c(C(N)=O)nnc2cc(-c3ccncc3)ccc12`, the inhibition at AKT1 (human) was 12.7%; on CAMK2A (human), 13.6%; at ERBB4 (human), 22.3%; against MAPK1 (human) it was 22.7%; against PLK1 (human), 33.4%; on PLK3 (human), -0.393%.

For the molecule `CC(C)Nc1c(C(N)=O)nnc2cc(-c3ccc(N4CCOCC4)cc3)ccc12`, the half-maximal inhibitory concentration (IC50) amounted to 0.022 µM at CSF1R (human) [1], 0.009 µM against LRRK2 (human) [2], 0.012 µM in test [3] and 0.262 µM against PDGFRA (human) [4]. The inhibition against ABL1 (human) amounted to 55.5%; on AKT1 (human) it was 1.33%; on AURKA (human), 80.8%; at CAMK2A (human), 17.4%; on CDK1 CCNB1 (human) it was 2.62%; on CDK2 CCNA2 (human), 5.12%. Besides, the inhibition came out at 3.19% on CDK5 CDK5R1 p25 (human); 93.2% against CHEK1 (human); 4.04% on CLK1 (human); 97.3% on CSF1R (human) [5]; 6.79% against DYRK1B (human); 14.7% on ERBB4 (human). For the same molecule, the inhibition was 98.9% at FLT3 (human); 42.2% against GSK3B (human); -0.801% at INSR (human); 17.5% at IRAK4 (human); 72.3% against JAK1 JH1 JH2 (human); 74.7% on LCK (human). For the same molecule, the inhibition on LRRK2 (human) [6] is 98.6%; against MAP3K7 TAB1 (human), 67.1%; against MAPK1 (human) it was -5.26%; against MAPK10 (human) it was 16.6%; at MARK2 (human) it was 80.5%; at PAK4 (human), 59.5%. The inhibition was 97.5% at PDGFRA (human) [7]; 15.2% on PIK3CA PIK3R1 (human); 3.31% against PLK1 (human); 5.59% against PLK2 (human); -15.6% against PLK3 (human); -1.97% at PRKACA (human). Besides, the inhibition against PRKCB1 (human) was -0.227%; on PTK2B (human), 38.9%; at RAF1 (human) it was 27%; against RET (human), 82.8%; at RIPK2 (human) it was 44.4%; against ROCK2 (human) it was 78%. The inhibition on STK16 (human) is 39.9%; on STK3 (human) it was 41.9%; against SYK (human), 81.4%; on TTK (human), 66.6%.

Turning to `CS(=O)(=O)c1ccc(-c2ccc3c(NC4CCC4)c(C(N)=O)nnc3c2)cc1`, the inhibition is 4.88% at AKT1 (human); 10.5% against CAMK2A (human); 7.35% against CDK1 CCNB1 (human); 2.69% against CDK2 CCNA2 (human); -0.613% against CDK5 CDK5R1 p25 (human); 13.7% against CLK1 (human). Further, the inhibition against ERBB4 (human) was 3.89%; at INSR (human), 7.17%; on IRAK4 (human) it was -6.26%; against MAPK1 (human) it was 2.96%; on PIK3CA PIK3R1 (human) it was 1.77%; against PLK1 (human), 13.7%. The inhibition on PLK2 (human) was 10.6%; against PLK3 (human) it was 9.8%; against PRKACA (human) it was 0.0814%; at PRKCB1 (human), -1.63%.

As to `C[C@@H](Nc1c(C(N)=O)nnc2cc(-c3ccc(S(C)(=O)=O)cc3)ccc12)C1CC1`, the inhibition at AKT1 (human) is 4.06%; on CAMK2A (human), 14.6%; against CDK1 CCNB1 (human) it was -2.77%; against CDK2 CCNA2 (human), -48.5%; on CDK5 CDK5R1 p25 (human), -16.4%; against CLK1 (human) it was 5.47%. Besides, the inhibition is 2.7% against DYRK1B (human); 11.7% at ERBB4 (human); 28.6% against GSK3B (human); 0.279% on INSR (human); 0.691% against IRAK4 (human); -52.2% against MAPK1 (human). In addition, the inhibition was 20.5% against MAPK10 (human); 9.68% at PIK3CA PIK3R1 (human); 1.06% against PLK1 (human); 17.2% against PLK2 (human); 4.63% against PLK3 (human); -0.763% at PRKACA (human). Moreover, the inhibition against PRKCB1 (human) was 0.123%; on RAF1 (human), 21.3%; at RIPK2 (human), 28.4%; at STK16 (human), -47.1%.

For the molecule `CC(C)Nc1c(C(N)=O)nnc2ccc(-c3ccncc3)cc12`, the results for the inhibition at ERBB4 (human) and against INSR (human) were 20.6% and 13.3%, respectively.
